Measured values published in patent US6835808B2, “Anti-heparin peptides” (Diagnostica-Stago, priority 2000, dated 2004).

Columns and labels:
[1] = test system: UFH (unfractionated heparin, Calciparine) in plasma; assay: Anti-heparin power in a PT (Quick time) test with thromboplastin reagent, heparinized vs nonheparinized plasma; type: biochemical; details: anti-heparin agent at 5 μg/ml in thromboplastin reagent; pool of normal plasma with 0 vs 1 IU/ml UFH; delta relative clotting time
Procedure: The aim is to analyze the performance (anti-heparin power and turbidity) of anti-heparin agents incorporated into a Diagnostica Stago thromboplastin reagent.
Analysis of the anti-heparin power: This is the ability of the anti-heparin agent to make the reagent insensitive to the heparin contained in the blood sample:
The test samples are prepared from a pool of normal plasma which may or may not be overloaded with heparin (plasma heparinized with 1 IU/ml of UFH (Calciparine 25 000 IU/ml, Sanofi)).
Comment: a reagent serving as a negative control, i.e. without anti-heparin agent, is of use to verify the heparinization of the plasma.
To determine the Quick Time, the automated device (STA Diagnostica Stago—patent EP 0325874) removes 50 μl of sample plasma, which it allows to incubate at 37° C. for 240 seconds in a cupule containing a bead; it then transfers the cupule into the measuring area and adds 100 μl of thromboplastin reagent to the sample.
The clotting time was determined in the following way: At constant viscosity, the amplitude of oscillation of the bead in the cupule (oscillation maintained using an electromagnetic field) is constant. When the viscosity increases (clotting phenomenon), the amplitude of oscillation of the bead decreases.
An algorithm uses this variation in amplitude to determine the clotting time.
The anti-heparin power is calculated in the following way: determination of the delta relative time between a heparinized and nonheparinized plasma, i.e.:
[{CT(heparinized plasma)−CT(nonheparinized plasma)}/TC(nonheparinized plasma)×100]
The anti-heparin power of the compounds according to the invention is estimated to be significant when this delta time is less than 10%.

[2] = Turbidity of the thromboplastin reagent containing the anti-heparin agent (OD at 630 nm); type: physicochemical; details: anti-heparin agent at 5 μg/ml in thromboplastin-type reagent
Procedure: The turbidity should be as low as possible for an application in diagnosis, and more particularly in a thromboplastin test (PT).
This turbidity is determined by measuring the OD at 630 nm on a spectrophotometer (Uvikon 940, Kontron).
Comment: a reagent serving as a negative control, i.e. without anti-heparin agent, is of use to measure the influence of this anti-heparin agent on the turbidity of the reagent.

Row | Substance | Anti-UFH power Delta time 0/1 IU/ml (in %) [1] [%] | Turbidity OD 630 nm [2] [OD]
1 | Hyp-K4-(AHA)2-K4-AHA-K4-AHA-K2 [1415-3] | 3.4 | 0.134
2 | PGlu-K4-(AHA)2-K4-AHA-K4-AHA-K2 [1415-5] | 4.5 | 0.069
3 | Pro-K3-AHA-K4-APA-K4-APA-K2 [1403PK] | 8.7 | 0.283
4 | Pro-K3-AHA-K4-APA-K4-APA-K2 [1403P] | 7.1 | 0.205
5 | Pro-K4-(AHA)2-K4-AHA-K3-AHA-K2 [compound 1411] | 6.5 | 0.086
6 | Pro-K4-(AHA)2-K4-AHA-K4-AHA-K2 [compound 1405] | 4.2 | 0.323
7 | Pro-K4-AHA-K3-APA-K3-APA-K2 [compound 1404] | 7.6 | 0.147
8 | Pro-K4-AHA-K3-APA-K4-APA-K3 [1408-2] | 6.9 | 0.040
9 | Pro-K4-AHA-K4-APA-K3-APA-K3 [compound 1394] | 6.4 | 0.399
10 | Pro-K4-AHA-K4-APA-K4-APA-K2 [compound 1401] | 8.1 | 0.488
11 | THC-K4-(AHA)2-K4-AHA-K4-AHA-K2 [1415-4] | 5.9 | 0.148
12 | Thi-K4-(AHA)2-K4-AHA-K4-AHA-K2 [1415-2] | 5.7 | 0.104
